Patent publication US12448389B2, “BRM targeting compounds and associated methods of use” (Prelude Therapeutics Incorporated, priority 2020, dated 2025)

Experiments:
SMARCA2-HiBiT = target: T1, SMARCA2-HiBiT (Homo sapiens, UniProt P51531); experiment: SMARCA2 HiBiT degradation assay in HeLa cells; assay type: cell-based; conditions: 18 hours incubation; for DC50: read-out: HeLa_HiBit-SM2 DC50; for Dmax: HeLa, read-out: HeLa-HiBit-SM2 Dmax (%)
T1 construct: SMARCA2-HiBiT knock-in Hela monoclonal cell (CS302366); host or cells: HeLa monoclonal knock-in line (CRISPR HiBiT knock-in at the endogenous locus, heterozygous)
Experimental: (§1) HiBiT peptide knock-in of SMARCA2 in LgBiT expressing HEK293T cells was performed by CRISPR-mediated tagging system as described Promega. The homozygous HiBiT knock-in on c-terminus SMARCA2 was confirmed by sanger sequence. SMARCA2-HiBiT knock-in Hela monoclonal cell (CS302366) and SMARCA4-HiBiT knock-in Hela monoclonal cell (CS3023226) were purchased from Promega. The heterozygous HiBiT-knock-in was confirmed by sanger sequence in both SMARCA2-HiBiT and SMARCA4-HiBiT monoclonal cells.
(§2) SMARCA2 HiBiT and SMARCA4 HiBiT Degradation Assay in HeLa Cells
(§3) Dispense 10 ul aliquot of prepared Hela-SMARCA2-HiBiT or Hela-SMARCA4-HiBiT cells (1:1 ratio of cells:Trypan Blue (#1450013, Bio-Rad)) onto cell counting slide (#145-0011, Bio-Rad) and obtain cell density and cell viability using cell counter (TC20, Bio-Rad). Remove appropriate volume of resuspended cells from culture flask to accommodate 2500 cells/well @20 μL/well. Transfer Hela-HiBiT cells to 50 mL conical (#430290, Corning). Spin down at 1000 rpm for 5 min using tabletop centrifuge (SPINCHRON 15, Beckman). Discard supernatant and resuspend cell pellet in modified EMEM (#30-2003, ATCC) cell culture media containing 10% FBS (F2422-500ML, Sigma), and 1×Penicillin/Streptomycin (200 g/L) (30-002-CI, Corning) to a cell density of 125,000 cells/mL. Dispense 20 μL of resuspended Hela-HiBit cells per well in 384-well TC treated plate (#12-565-343, Thermo Scientific) using standard cassette (#50950372, Thermo Scientific) on Multidrop Combi (#5840310, Thermo Scientific) inside laminar flow cabinet. Dispense test compounds onto plates using digital liquid dispenser (D300E, Tecan). Incubate plates in humidified tissue culture incubator @37° C. for 18 hours. Add 20 μL of prepared Nano-Glo® HiBiT Lytic detection buffer (N3050, Promega) to each well of 384-well plate using small tube cassette (#24073295, Thermo Scientific) on Multidrop Combi, incubate @RT for 30-60 min. Read plates on microplate reader (Envision 2105, PerkinElmer) using 384 well Ultra-Sensitive luminescence mode. Raw data files and compound information reports are swept into centralized data lake and deconvoluted using automated scripts designed by TetraScience, Inc. Data analysis, curve-fitting and reporting done in Dotmatics Informatics Suite using Screening Ultra module.

SMARCA4-HiBiT = target: T2, SMARCA4-HiBiT (Homo sapiens, UniProt P51532); experiment: SMARCA4 HiBiT degradation assay in HeLa cells; assay type: cell-based; conditions: 18 hours incubation; for DC50: read-out: HeLa-HiBit-SM4 DC50; for Dmax: HeLa, read-out: HeLa-HiBit-SM4 Dmax (%)
T2 construct: SMARCA4-HiBiT knock-in Hela monoclonal cell (CS3023226); host or cells: HeLa monoclonal knock-in line (CRISPR HiBiT knock-in at the endogenous locus, heterozygous)
Experimental: as §1, §2, §3

T2 sequence (P51532 whole entry): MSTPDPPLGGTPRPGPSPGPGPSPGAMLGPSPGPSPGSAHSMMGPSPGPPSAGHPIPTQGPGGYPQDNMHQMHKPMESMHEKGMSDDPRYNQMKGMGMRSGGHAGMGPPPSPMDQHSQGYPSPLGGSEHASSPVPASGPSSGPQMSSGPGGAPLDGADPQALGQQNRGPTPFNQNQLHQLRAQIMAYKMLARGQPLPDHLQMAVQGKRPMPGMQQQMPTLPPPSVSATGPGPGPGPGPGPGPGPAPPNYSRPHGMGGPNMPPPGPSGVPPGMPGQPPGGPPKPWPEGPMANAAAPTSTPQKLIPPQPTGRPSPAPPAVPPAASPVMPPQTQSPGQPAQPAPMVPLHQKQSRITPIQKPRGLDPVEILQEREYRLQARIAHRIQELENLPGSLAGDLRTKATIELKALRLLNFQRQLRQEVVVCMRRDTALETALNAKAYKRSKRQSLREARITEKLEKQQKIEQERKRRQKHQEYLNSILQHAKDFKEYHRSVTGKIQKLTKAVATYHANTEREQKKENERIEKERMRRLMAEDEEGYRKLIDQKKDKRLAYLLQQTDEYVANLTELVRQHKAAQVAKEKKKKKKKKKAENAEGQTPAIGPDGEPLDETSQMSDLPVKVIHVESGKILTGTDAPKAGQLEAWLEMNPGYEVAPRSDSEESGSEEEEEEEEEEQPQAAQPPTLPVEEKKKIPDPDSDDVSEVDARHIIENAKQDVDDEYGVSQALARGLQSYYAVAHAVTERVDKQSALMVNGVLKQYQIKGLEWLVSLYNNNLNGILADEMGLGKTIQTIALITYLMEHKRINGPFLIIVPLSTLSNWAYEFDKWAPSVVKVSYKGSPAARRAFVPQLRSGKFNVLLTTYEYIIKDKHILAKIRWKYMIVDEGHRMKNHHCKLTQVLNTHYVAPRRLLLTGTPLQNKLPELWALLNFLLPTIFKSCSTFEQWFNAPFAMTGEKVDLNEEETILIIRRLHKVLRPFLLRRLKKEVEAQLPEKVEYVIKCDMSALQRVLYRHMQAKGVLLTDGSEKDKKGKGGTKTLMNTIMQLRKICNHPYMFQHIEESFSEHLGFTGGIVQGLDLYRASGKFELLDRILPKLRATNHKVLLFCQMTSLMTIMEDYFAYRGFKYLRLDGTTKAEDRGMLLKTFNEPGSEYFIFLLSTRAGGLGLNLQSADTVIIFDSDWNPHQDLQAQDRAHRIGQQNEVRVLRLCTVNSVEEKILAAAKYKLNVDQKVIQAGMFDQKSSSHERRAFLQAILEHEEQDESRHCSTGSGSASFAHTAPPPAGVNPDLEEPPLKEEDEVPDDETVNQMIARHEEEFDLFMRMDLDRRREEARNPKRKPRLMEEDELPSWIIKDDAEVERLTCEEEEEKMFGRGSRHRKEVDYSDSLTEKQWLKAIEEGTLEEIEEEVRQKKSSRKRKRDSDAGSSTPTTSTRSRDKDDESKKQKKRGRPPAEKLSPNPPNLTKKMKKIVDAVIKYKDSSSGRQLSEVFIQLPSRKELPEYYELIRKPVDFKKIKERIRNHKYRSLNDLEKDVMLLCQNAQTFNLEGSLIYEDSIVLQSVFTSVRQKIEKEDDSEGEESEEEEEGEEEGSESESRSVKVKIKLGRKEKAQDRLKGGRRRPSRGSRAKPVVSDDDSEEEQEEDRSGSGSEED
T1 sequence (P51531 whole entry): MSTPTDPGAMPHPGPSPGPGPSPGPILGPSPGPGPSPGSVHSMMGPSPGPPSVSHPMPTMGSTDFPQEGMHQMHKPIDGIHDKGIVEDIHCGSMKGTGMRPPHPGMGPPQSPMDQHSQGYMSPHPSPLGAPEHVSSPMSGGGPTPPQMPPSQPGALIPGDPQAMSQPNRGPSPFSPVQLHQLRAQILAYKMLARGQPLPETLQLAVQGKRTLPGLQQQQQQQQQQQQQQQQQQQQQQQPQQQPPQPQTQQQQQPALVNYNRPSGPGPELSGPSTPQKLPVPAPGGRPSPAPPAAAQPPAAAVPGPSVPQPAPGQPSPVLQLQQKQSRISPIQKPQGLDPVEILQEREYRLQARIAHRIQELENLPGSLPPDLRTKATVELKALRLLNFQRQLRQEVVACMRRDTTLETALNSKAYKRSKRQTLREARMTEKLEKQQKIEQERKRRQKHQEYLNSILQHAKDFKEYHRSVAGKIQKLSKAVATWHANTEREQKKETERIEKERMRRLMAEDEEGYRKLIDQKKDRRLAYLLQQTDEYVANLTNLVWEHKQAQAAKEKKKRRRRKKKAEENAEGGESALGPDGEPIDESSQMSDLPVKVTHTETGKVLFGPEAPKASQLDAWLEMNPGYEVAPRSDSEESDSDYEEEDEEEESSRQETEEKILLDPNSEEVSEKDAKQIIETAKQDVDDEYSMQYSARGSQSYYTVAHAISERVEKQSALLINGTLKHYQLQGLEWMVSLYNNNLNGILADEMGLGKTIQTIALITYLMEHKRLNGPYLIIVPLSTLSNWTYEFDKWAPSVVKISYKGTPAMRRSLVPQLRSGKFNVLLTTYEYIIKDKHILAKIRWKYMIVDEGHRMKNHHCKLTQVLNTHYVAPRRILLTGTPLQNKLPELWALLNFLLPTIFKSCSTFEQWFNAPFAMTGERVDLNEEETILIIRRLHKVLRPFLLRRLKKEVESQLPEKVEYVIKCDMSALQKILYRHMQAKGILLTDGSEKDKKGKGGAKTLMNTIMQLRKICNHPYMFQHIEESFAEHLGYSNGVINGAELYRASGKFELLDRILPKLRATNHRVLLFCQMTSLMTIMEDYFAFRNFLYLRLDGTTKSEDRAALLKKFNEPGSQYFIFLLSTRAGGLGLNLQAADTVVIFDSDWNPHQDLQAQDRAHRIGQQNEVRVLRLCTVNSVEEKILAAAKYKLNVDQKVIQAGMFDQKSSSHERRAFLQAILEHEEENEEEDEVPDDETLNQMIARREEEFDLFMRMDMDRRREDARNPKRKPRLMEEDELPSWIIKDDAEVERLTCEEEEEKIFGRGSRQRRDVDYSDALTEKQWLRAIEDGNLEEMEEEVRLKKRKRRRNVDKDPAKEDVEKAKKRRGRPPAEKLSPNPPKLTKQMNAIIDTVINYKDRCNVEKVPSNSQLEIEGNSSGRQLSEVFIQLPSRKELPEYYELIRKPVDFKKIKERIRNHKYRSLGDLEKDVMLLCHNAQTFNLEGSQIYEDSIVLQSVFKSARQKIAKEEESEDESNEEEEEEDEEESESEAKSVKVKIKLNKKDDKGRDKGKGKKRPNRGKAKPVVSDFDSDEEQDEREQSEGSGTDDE

| DC50 (SMARCA2-HiBiT) | Dmax (SMARCA2-HiBiT) | DC50 (SMARCA4-HiBiT) | Dmax (SMARCA4-HiBiT) | HeLa-HiBit-SM4 Dmax (%) (SMARCA4-HiBiT) | Compound |
| --- | --- | --- | --- | --- | --- |
| < 10 nM | 75 to 85% | < 10 nM | 75 to 85% | – | O=C1CCC(N2C(=O)c3ccc(N4C[C@H]5CC(N6CCC(CN7CCN8c9cc(-c%10ccccc%10O)nnc9NC[C@H]8C7)CC6)[C@H]5C4)cc3C2=O)C(=O)N1 (stereo partly drawn) [Example 190, 2-(2,6-dioxopiperidin-3-yl)-5-[(1S,5R)-6-[4-[[(10S)-4-(2-hydroxyphenyl)-1,5,6,8,12-pentazatricyclo[8.4.0.02,7]tetradeca-2(7),3,5-trien-12-yl]methyl]piperidin-1-yl]-3-azabicyclo[3.2.0]heptan-3-yl]isoindole-1,3-dione] |
| < 10 nM | > 85% | < 10 nM | > 85% | – | O=C1CCC(N2C(=O)c3ccc(N4CCC(CN5CCC(CN6CCN7c8cc(-c9ccccc9O)nnc8NC[C@H]7C6)CC5)CC4)cc3C2=O)C(=O)N1COC(=O)C1(O)CC1 (stereo partly drawn) [Example 130, (3-(5-(4-((4-(((S)-2-(2-hydroxyphenyl)-5,6,6a,7,9,10-hexahydro-8H-pyrazino[1′,2′:4,5]pyrazino[2,3-c]pyridazin-8-yl)methyl)piperidin-1-yl)methyl)piperidin-1-yl)-1,3-dioxoisoindolin-2-yl)-2,6-dioxopiperidin-1-yl)methyl-1-hydroxycyclopropane-1-carboxylate] |
| < 10 nM | 50 to 75% | 10 to 100 nM | 75 to 85% | – | O=C1CCC(N2C(=O)c3ccc(N4CC(CN5CCC(CN6CCN7c8cc(-c9ccccc9O)nnc8NC[C@H]7C6)CC5)C(F)(F)C4)cc3C2=O)C(=O)N1 (stereo partly drawn) [Example 191, 5-[3,3-difluoro-4-[[4-[[(10S)-4-(2-hydroxyphenyl)-1,5,6,8,12-pentazatricyclo[8.4.0.02,7]tetradeca-2(7),3,5-trien-12-yl]methyl]piperidin-1-yl]methyl]pyrrolidin-1-yl]-2-(2,6-dioxopiperidin-3-yl)isoindole-1,3-dione] |
| < 10 nM | > 85% | < 10 nM | 75 to 85% | – | CC12CNc3nnc(-c4ccccc4O)cc3N1CCN(C1CCN(CCCc3ccc4c(c3)c3cccnc3n4C3CCC(=O)NC3=O)CC1)C2 (stereo not shown) [Example 25, 3-(6-(3-(4-(2-(2-hydroxyphenyl)-6a-methyl-5,6,6a,7,9,10-hexahydro-8H-pyrazino[1′,2′:4,5]pyrazino[2,3-c]pyridazin-8-yl)piperidin-1-yl)propyl)-9H-pyrido[2,3-b]indol-9-yl)piperidine-2,6-dione] |
| < 10 nM | > 85% | < 10 nM | 75 to 85% | – | O=C1CCC(N2C(=O)c3cccc(N4CCC(CN5CCC(CN6CCN7c8cc(-c9ccccc9O)nnc8NC[C@H]7C6)CC5)CC4)c3C2=O)C(=O)N1 (stereo partly drawn) [Example 127, 2-(2,6-dioxopiperidin-3-yl)-4-(4-((4-(((S)-2-(2-hydroxyphenyl)-5,6,6a,7,9,10-hexahydro-8H-pyrazino[1′,2′:4,5]pyrazino[2,3-c]pyridazin-8-yl)methyl)piperidin-1-yl)methyl)piperidin-1-yl) isoindoline-1,3-dione] |
| < 10 nM | 50 to 75% | < 10 nM | ≤ 50% | – | C[C@H]1CN2c3cc(-c4ccccc4O)nnc3NC[C@H]2CN1C[C@H]1[C@@H]2CN(CC3CCN(c4ccc5c(c4)CN(C4CCC(=O)NC4=O)C5=O)CC3)C[C@@H]21 (stereo partly drawn) [Example 57, 3-(5-(4-(((1R,5S,6r)-6-(((6aS,9S)-2-(2-hydroxyphenyl)-9-methyl-5,6,6a,7,9,10-hexahydro-8H-pyrazino[1′,2′:4,5]pyrazino[2,3-c]pyridazin-8-yl)methyl)-3-azabicyclo[3.1.0]hexan-3-yl)methyl)piperidin-1-yl)-1-oxoisoindolin-2-yl)piperidine-2,6-dione] |
| < 10 nM | > 85% | < 10 nM | > 85% | – | CN(C1CCN(CC2CCN(c3ccc4c(c3)C(=O)N(C3CCC(=O)NC3=O)C4=O)CC2)CC1)C1C[C@@H]2CNc3nnc(-c4ccccc4O)cc3N2C1 (stereo partly drawn) [Example 29, 2-(2,6-dioxopiperidin-3-yl)-5-(4-((4-(((6aR)-2-(2-hydroxyphenyl)-5,6,6a,7,8,9-hexahydropyrrolo[1′,2′:4,5]pyrazino[2,3-c]pyridazin-8-yl)(methyl)amino)piperidin-1-yl)methyl)piperidin-1-yl) isoindoline-1,3-dione] |
| < 10 nM | 75 to 85% | 10 to 100 nM | 50 to 75% | – | O=C1CCC(N2C(=O)c3ccc(N4CC[C@@H]5CN(C6CCC(C(=O)N7CCN8c9cc(-c%10ccccc%10O)nnc9NC[C@H]8C7)CC6)C[C@H]5C4)cc3C2=O)C(=O)N1 (stereo partly drawn) [Example 97, 2-(2,6-dioxopiperidin-3-yl)-5-((3aS,7aS)-2-(4-((S)-2-(2-hydroxyphenyl)-6,6a,7,8,9,10-hexahydro-5H-pyrazino[1′,2′:4,5]pyrazino[2,3-c]pyridazine-8-carbonyl)cyclohexyl)octahydro-5H-pyrrolo[3,4-c]pyridin-5-yl) isoindoline-1,3-dione] |
| < 10 nM | 75 to 85% | 10 to 100 nM | – | C (C=50%<Dmax<=75%) | O=C1CCC(N2C(=O)c3ccc(N4CC[C@H](CN5C[C@@H]6[C@H](C5)[C@H]6CN5CCN6c7cc(-c8ccccc8O)nnc7NC[C@H]6C5)[C@@H](F)C4)cc3C2=O)C(=O)N1 (stereo partly drawn) [Example 193, 2-(2,6-dioxopiperidin-3-yl)-5-[(3R,4R)-3-fluoro-4-[[(1S,5R)-6-[[(10S)-4-(2-hydroxyphenyl)-1,5,6,8,12-pentazatricyclo[8.4.0.02,7]tetradeca-2(7),3,5-trien-12-yl]methyl]-3-azabicyclo [3.1.0]hexan-3-yl]methyl]piperidin-1-yl]isoindole-1,3-dione] |
| < 10 nM | 75 to 85% | < 10 nM | 75 to 85% | – | O=C1CCC(N2C(=O)c3ccc(C4CCN(CC5CCN(C(=O)N6CCN7c8cc(-c9ccccc9O)nnc8NC[C@H]7C6)CC5)CC4)cc3C2=O)C(=O)N1 (stereo partly drawn) [Example 144, 2-(2,6-dioxopiperidin-3-yl)-5-(1-((1-((S)-2-(2-hydroxyphenyl)-6,6a,7,8,9,10-hexahydro-5H-pyrazino[1′,2′:4,5]pyrazino[2,3-c]pyridazine-8-carbonyl)piperidin-4-yl)methyl)piperidin-4-yl)isoindoline-1,3-dione] |
| < 10 nM | 50 to 75% | < 10 nM | 50 to 75% | – | O=C1CCC(N2C(=O)c3cccc(N4CCC(OCCN5CCC(N6CCN7c8cc(-c9ccccc9O)nnc8NC[C@H]7C6)CC5)CC4)c3C2=O)C(=O)N1 (stereo partly drawn) [Example 67, 2-(2,6-dioxopiperidin-3-yl)-4-(4-(2-(4-((S)-2-(2-hydroxyphenyl)-5,6,6a,7,9,10-hexahydro-8H-pyrazino[1′,2′:4,5]pyrazino[2,3-c]pyridazin-8-yl)piperidin-1-yl)ethoxy)piperidin-1-yl)isoindoline-1,3-dione] |
| < 10 nM | > 85% | < 10 nM | > 85% | – | CC1CC(CN2CCN3c4cc(-c5ccccc5O)nnc4NC[C@H]3C2)CCN1CC1CCN(c2ccc3c(c2)C(=O)N(C2CCC(=O)NC2=O)C3=O)CC1 (stereo partly drawn) [Example 162, 2-(2,6-dioxopiperidin-3-yl)-5-[4-[[4-[[(10S)-4-(2-hydroxyphenyl)-1,5,6,8,12-pentazatricyclo[8.4.0.02,7]tetradeca-2,4,6-trien-12-yl]methyl]-2-methylpiperidine-1-yl]methyl]piperidin-1-yl] isoindole-1,3-dione] |
| < 10 nM | > 85% | < 10 nM | > 85% | – | NC1(C(=O)OCN2C(=O)CCC(N3C(=O)c4ccc(N5CCC(CN6CCC(CN7CCN8c9cc(-c%10ccccc%10O)nnc9NC[C@H]8C7)CC6)CC5)cc4C3=O)C2=O)CC1 (stereo partly drawn) [Example 131, (3-(5-(4-((4-(((S)-2-(2-hydroxyphenyl)-5,6,6a,7,9,10-hexahydro-8H-pyrazino[1′,2′:4,5]pyrazino[2,3-c]pyridazin-8-yl)methyl)piperidin-1-yl)methyl)piperidin-1-yl)-1,3-dioxoisoindolin-2-yl)-2,6-dioxopiperidin-1-yl)methyl 1-aminocyclopropane-1-carboxylate] |
